Source: US20130029928A1 (priority 2010, published 2013)
Where two headings read alike, the source gives them in different places.

Assay: Phase I study CXR1002-001: plasma pharmacokinetics (LC-MS/MS)
Assay type: in vivo, human
Settings: human, plasma, oral; for concentration at 843 h / concentration at 844 h / concentration at 864 h / concentration at 2 h / concentration at 3 h / concentration at 4 h / concentration at 24 h / concentration at 168 h / concentration at 170 h / concentration at 171 h / concentration at 172 h / concentration at 192 h / concentration at 336 h / concentration at 338 h / concentration at 339 h / concentration at 340 h / concentration at 360 h / concentration at 506 h / concentration at 507 h / concentration at 508 h / concentration at 528 h / concentration at 672 h / concentration at 674 h / concentration at 675 h / concentration at 676 h / concentration at 696 h / concentration at 840 h / concentration at 842 h / concentration at 504 h: read-out: Concentration; for concentration at 864 h: 864 hr (Day 37); for concentration at 24 h: 24 hr (Day 2); for concentration at 168 h: 168 hr (Day 8); for concentration at 192 h: 192 hr (Day 9); for concentration at 336 h: 336 hr (Day 15); for concentration at 360 h: 360 hr (Day 16); for concentration at 528 h: 528 hr (Day 23); for concentration at 672 h: 672 hr (Day 29); for concentration at 696 h: 696 hr (Day 30); for concentration at 840 h: 840 hr (Day 36); for concentration at 504 h: 504 hr (Day 22)
Description: PK samples, PD (fasting) samples, blood glucose, and blood triglyceride samples, were taken over a 6-week period.
Dose limiting toxicity (DLT) will be based on the toxicity assessments over the first 3-week period of the repeat dosing schedule. PK samples (single blood sample) were taken on the following basis: • Every 6 weeks during the repeat dosing phase • If dosing is interrupted or stopped, samples will be taken at intervals according to patient convenience • PK sampling for safety evaluation may take place at any time, as clinically indicated
Plasma samples were collected after the single 50 mg dose at the following timepoints: Pre-dose, and then 0.25, 0.5, 0.75, 1, 1.5, 2, 3, 4, 6, 24, 48, and 72 hours after administration and then once weekly at weeks 2, 3, 4, 5, and 6 (days 8, 15, 22, 29, and 36). For patients treated with the weekly repeat dose, plasma samples were collected at the following timepoints: Pre-dose and then 2, 3, 4 and 24 hours after administration for a total of 6 weeks. Thereafter a single sample was collected every 6 weeks for monitoring of exposure during long term treatment. Plasma samples were processed at site and stored at −80° C. prior to batch shipment to the analytical laboratory.

[1] = 200 mg, Patient 009 Dose 200 mg
[2] = 200 mg, Patient 010 Dose 200 mg
[3] = 300 mg, Patient 011 Dose 300 mg
[4] = 300 mg, Patient 012 Dose 300 mg
[5] = 300 mg, Patient 013 Dose 300 mg
[6] = 300 mg, Patient 014 Dose 300 mg

O=C(O)C(F)(F)C(F)(F)C(F)(F)C(F)(F)C(F)(F)C(F)(F)C(F)(F)F [CXR1002] gave a concentration at 843 h [1] of 373 µM, a concentration at 844 h [1] of 329 µM and a concentration at 864 h [1] of 346 µM. It also gave a concentration at 92 day (200 mg, Patient 009 Dose 200 mg, Day 92) of 456 µM, a concentration at 19 week (200 mg, Patient 009 Dose 200 mg, Week 19) of 618 µM and a concentration at 25 week (200 mg, Patient 009 Dose 200 mg, Week 25) of 501 µM. The concentration at 32 week (200 mg, Patient 009 Dose 200 mg, Week 32) was 540 µM, the concentration at 0 h (200 mg, Patient 010 Dose 200 mg, 0 hr) was 0 nM and the concentration at 2 h [2] was 21.1 µM. For the same molecule, the concentration at 3 h [2] was 30.4 µM, the concentration at 4 h [2] was 33.6 µM and the concentration at 24 h [2] was 58.6 µM. It also gave a concentration at 168 h [2] of 51 µM, a concentration at 170 h [2] of 81.7 µM and a concentration at 171 h [2] of 81.4 µM. It also gave a concentration at 172 h [2] of 119 µM, a concentration at 192 h [2] of 101 µM and a concentration at 336 h [2] of 98.8 µM. The concentration at 338 h [2] was 118 µM, the concentration at 339 h [2] was 103 µM and the concentration at 340 h [2] was 66.7 µM. For the same molecule, the concentration at 360 h [2] was 175 µM, the concentration at 506 h [2] was 207 µM and the concentration at 507 h [2] was 276 µM. For the same molecule, the concentration at 508 h [2] was 187 µM, the concentration at 528 h [2] was 191 µM and the concentration at 672 h [2] was 192 µM. For the same molecule, the concentration at 674 h [2] was 193 µM, the concentration at 675 h [2] was 237 µM and the concentration at 676 h [2] was 231 µM. The concentration at 696 h [2] was 256 µM, the concentration at 840 h [2] was 243 µM and the concentration at 842 h [2] was 188 µM. It also gave a concentration at 843 h [2] of 232 µM, a concentration at 844 h [2] of 223 µM and a concentration at 864 h [2] of 221 µM. For the same molecule, the concentration at 2 h [3] was 101 µM, the concentration at 3 h [3] was 107 µM and the concentration at 4 h [3] was 112 µM. It also gave a concentration at 24 h [3] of 95.9 µM, a concentration at 168 h [3] of 57.9 µM and a concentration at 170 h [3] of 112 µM. It also gave a concentration at 171 h [3] of 122 µM, a concentration at 172 h [3] of 138 µM and a concentration at 192 h [3] of 178 µM. For the same molecule, the concentration at 336 h [3] was 131 µM, the concentration at 338 h [3] was 160 µM and the concentration at 339 h [3] was 160 µM. The concentration at 340 h [3] was 147 µM, the concentration at 360 h [3] was 237 µM and the concentration at 504 h [3] was 145 µM. For the same molecule, the concentration at 506 h [3] was 204 µM, the concentration at 507 h [3] was 288 µM and the concentration at 508 h [3] was 244 µM. It also gave a concentration at 672 h [3] of 255 µM, a concentration at 674 h [3] of 291 µM and a concentration at 675 h [3] of 304 µM. For the same molecule, the concentration at 676 h [3] was 243 µM, the concentration at 696 h [3] was 326 µM and the concentration at 840 h [3] was 270 µM. For the same molecule, the concentration at 842 h [3] was 384 µM, the concentration at 843 h [3] was 350 µM and the concentration at 844 h [3] was 282 µM. For the same molecule, the concentration at 864 h [3] was 387 µM, the concentration at 12 week (300 mg, Patient 011 Dose 300 mg, Week 12) was 574 µM and the concentration at 2 h [4] was 91.4 µM. It also gave a concentration at 3 h [4] of 93.5 µM, a concentration at 4 h [4] of 123 µM and a concentration at 24 h [4] of 74 µM. It also gave a concentration at 168 h [4] of 64.8 µM, a concentration at 171 h [4] of 148 µM and a concentration at 172 h [4] of 126 µM. The concentration at 192 h [4] was 152 µM, the concentration at 336 h [4] was 141 µM and the concentration at 339 h [4] was 196 µM. The concentration at 340 h [4] was 213 µM, the concentration at 360 h [4] was 218 µM and the concentration at 504 h [4] was 181 µM. It also gave a concentration at 506 h [4] of 278 µM, a concentration at 507 h [4] of 261 µM and a concentration at 508 h [4] of 221 µM. For the same molecule, the concentration at 528 h [4] was 263 µM, the concentration at 672 h [4] was 303 µM and the concentration at 674 h [4] was 340 µM. It also gave a concentration at 675 h [4] of 373 µM, a concentration at 676 h [4] of 292 µM and a concentration at 696 h [4] of 334 µM. The concentration at 2 h [5] was 82.7 µM, the concentration at 3 h [5] was 76 µM and the concentration at 4 h [5] was 85.3 µM. It also gave a concentration at 24 h [5] of 79.6 µM, a concentration at 2 h [6] of 131 µM and a concentration at 3 h [6] of 121 µM. The concentration at 4 h [6] was 100 µM, the concentration at 24 h [6] was 102 µM and the concentration at 168 h [6] was 79.6 µM. For the same molecule, the concentration at 170 h [6] was 154 µM, the concentration at 171 h [6] was 178 µM and the concentration at 172 h [6] was 180 µM. The concentration at 192 h [6] was 178 µM, the concentration at 336 h [6] was 173 µM and the concentration at 338 h [6] was 297 µM. The concentration at 339 h [6] was 270 µM, the concentration at 340 h [6] was 261 µM and the concentration at 504 h [6] was 288 µM. It also gave a concentration at 506 h [6] of 336 µM, a concentration at 507 h [6] of 374 µM and a concentration at 528 h [6] of 420 µM. It also gave a concentration at 672 h [6] of 355 µM, a concentration at 674 h [6] of 389 µM and a concentration at 675 h [6] of 400 µM. It also gave a concentration at 676 h [6] of 411 µM, a concentration at 696 h [6] of 478 µM and a concentration at 840 h [6] of 426 µM. It also gave a concentration at 842 h [6] of 506 µM.
